Two compounds from patent US8742112B2, “Heterocyclic compound and its use for control of an arthropod pest” (Sumitomo Chemical Company, Limited, priority 2009, dated 2014) can be followed below.

SMILES strings stand for the structures.

One test concerns Bemisia tabaci. Nature of the test: Test Example 4: spray on tomato seedling carrying Bemisia tabaci eggs/larvae. It counts as in vivo. Particulars: 200 ppm, 10 ml/cup sprayed on tomato seedling, larvae checked after 7 days at 25° C., Formulation Example 5. The method, then: The present compounds (1), (4) to (7), (9) to (12) and (14) to (19) were formulated by the method in Formulation Example 5. This formulation was diluted with water so that the active ingredient concentration was 200 ppm, to prepare a diluted solution for test. On a tomato seedling planted in a plastic cup, Bemisia tabaci adult insects were released and allowed to lay eggs for about 24 hours. The tomato seedling was left in a greenhouse for 8 days. Thereafter, the diluted solution for test was sprayed in a proportion of 10 ml/cup. Further, this tomato seedling was placed in a greenhouse at 25° C. for 7 days. Thereafter, the number of larvae living on the tomato leaves was checked, and the control value was calculated according to the following formula. Control value (%)={1−(Cb×Tai)/(Cai×Tb)}×100 Letters in the formula represent the following meanings. Cb: insect number before treatment on non-treated area Cai: insect number in observation on non-treated area Tb: insect number before treatment on treated area Tai: insect number in observation on treated area

A further test deals with Aphis gossypii. Briefly: Test Example 3: treatment of the foot of a cucumber seedling, then inoculation with Aphis gossypii. Particulars: 200 ppm, 5 ml at foot of cucumber seedling, inoculated after 7 days at 25° C., checked after 6 days, Formulation Example 5. The format is in vivo. The procedure:
The present compound (7) was formulated by the method in Formulation Example 5. This formulation was diluted with water so that the active ingredient concentration was 200 ppm, to prepare a diluted solution for test. The diluted solution for test (5 ml) was used to treat a foot of a cucumber seedling (first true leaf spreading stage) planted in a plastic cup. This cucumber was left in a greenhouse at 25° C. for 7 days. Then; the cucumber leaf surface was inoculated with 30 Aphis gossypii (whole stage). This cucumber was further left in the greenhouse for 6 days, then, the insect number of living Aphis gossypii parasitic on the leaves of this cucumber was checked, and the control value was calculated according to the following formula. Control value (%)={1−(Cb×Tai)/(Cai×Tb)}×100 Letters in the formula represent the following meanings. Cb: insect number before treatment on non-treated area Cai: insect number in observation on non-treated area Tb: insect number before treatment on treated area Tai: insect number in observation on treated area

In the test on Bemisia tabaci, `Fc1cnccc1-c1nc2cc(C(F)(F)F)ccc2s1` [compound 1] had a Control value of at least 90%.

In turn, `CCS(=O)(=O)c1cnccc1-c1nc2cc(C(F)(F)F)ccc2s1` [compound 7] had a Control value in the test on Aphis gossypii of at least 90%.
